This note sets out measurements from paper PMC8617031, “Development of a BCL-xL and BCL-2 dual degrader with improved anti-leukemic activity,” (Nature Communications, 2021).

What all share (assay type): cell-based, human
One experiment has as its system Kasumi-1 cells. The experiment can be described thus: Apoptosis by Annexin-V/DAPI flow cytometry in Kasumi-1 cells. As to conditions: Fig. 7c-e, g. The procedure:
After treatment, cells were stained with Annexin V-FLUOS (1: 200, Cat. No. 11828681001, Roche, Little Falls, NJ, USA) at room temperature for 15 min, washed with PBS and then added DAPI (0.2 μg/mL, Cat. No. D1306, Invitrogen, Waltham, MA, USA) for apoptosis flow cytometry on Gallios (Beckman, Indianapolis, IN, USA).
In general terms: In flow cytometry, cells or beads pass a laser one at a time.

In experiment [1] the test system is Flag-BCL-xL WT or mutants. Put plainly: Polyubiquitination assay (Flag IP, HA-Ub blot), BCL-xL. As to conditions: 293T cells, MG132 10 µM pretreatment, 753b 0.1 µM, 5 h. An excerpt:
K16-only, K20-only, and K87-only represent that all the surface lysines on BCL-xL are mutated to arginines except K16, K20, and K87, respectively. Representative immunoblots of Flag-BCL-xL WT and mutants are shown in the top panel. […] K17R and K22R represents that K17 and K22 on BCL-2 are respectively mutated to arginine; K17/22R means both K17 and K22 on BCL-2 are mutated to arginine. Representative immunoblots of Flag-BCL-2 WT and mutants are shown in the top panel. The quantification of the relative Flag-BCL-xL or Flag-BCL-2 protein content in the immunoblots is presented as mean values ± s.e.m. (n = 3 biologically independent experiments) in the bottom panel. […] After 36 h, cells were pre-treated with MG132 (10 µM) for 2 h and then treated with or without 753b (0.1 µM for BCL-xL and 1 uM for BCL-2) for 5 h. The Flag-tagged proteins were immunoprecipitated (IP) and immunoblotted with HA or Flag antibody. The input results are shown in Supplementary Fig. 9. Data are a representative of two independent experiments. Source data are provided as a Source data file.
Proteins were extracted by using IP lysis buffer (Cat. No. 87788, Thermal Fisher Scientific) and IP was performed using Anti-FLAG M2 Magnetic Beads (Cat. No. M8823, Sigma-Aldrich) according to the manufacturer’s protocol. […]

For experiment [2], the system named is HiBit-BCL-xL-WT/K157-only/K-ko with HaloTag-VHL. Put plainly: NanoBRET ternary complex formation of WT, K157-only and K-ko BCL-xL with VHL and DT2216 in 293T cells. As to conditions: triplicate wells. From the text: Plasmids HaloTag-VHL (Cat. No. CS1679C155) and CMV HiBit (Cat. No. CS1956B03) were purchased from Promega. HiBit-BCL-xL and HiBit-BCL-2 were constructed previously. The two mutants (HiBit-BCL-xL-K157-only and HiBit-BCL-xL-K-ko) were constructed through Gibson assembly method. The primer pair (5′-[…]-3′ and 5′-[…]c[…]-3′) and the template Flag-BCL-xL-K157-only or Flag-BCL-xL-K-ko (pDL2129)[2] were used to clone the BCL-xL-K157-only-containing and BCL-xL-K-ko-containing fragments, respectively. The primer pair (5′-[…]g[…]-3′ and 5′-[…]-3′) and pBit3.1-N (Cat. No. N2361, Promega) were used to clone the vector-containing fragment. The PCR fragments were assembled using NEBuilder® HiFi DNA Assembly Master Mix (Cat. No. E2621, NEB, Ipswich, MA, USA). DNA sequences in all these plasmids were authenticated by automatic sequencing. […] After 24 h, 2 × 10^4 transfected cells were seeded into white 96-well tissue culture plates in Gibco™ Opti-MEM™ I Reduced Serum Medium, No Phenol Red (Cat. No. 11-058-021, Fisher) containing 4% FBS with or without HaloTag NanoBRET 618 Ligand (Cat. No. PRN1662, Promega) and incubated overnight at 37 °C, 5% CO2. The following day, serial diluted compounds were added into the medium and plates were incubated at 37 °C, 5% CO2, for 6 h. After treatment, NanoBRET Nano-Glo Substrate (cat. no. N1662, Promega) was added into the medium, and the contents were mixed by shaking the plate for 30 s before measuring donor and acceptor signals on Biotek plate reader. Dual-filtered luminescence was collected with a 450/50 nm bandpass filter (donor, NanoBiT-BCL-XL protein or NanoBiT-BCL-2 protein) and a 610-nm longpass filter (acceptor, HaloTag NanoBRET ligand) using an integration time of 0.5 s. mBRET ratios were calculated following the NanoBRET™ Nano-Glo® Detection System (Cat. No. N1662, Promega).
Supplementary Fig. 3. […] WT represents wild type HiBit-BCL-xL; K157-only means that all the surface lysines on BCL-xL are mutated to arginines except K157; K-ko represents that all the surface lysines on BCL-xL are mutated to arginines. Data are expressed as mean ± s.e.m. of three biological replicates. Source data are provided as a Source Data file.

Values joined by “and” are separate entries in the source; they are usually repeats but may differ in a detail not shown here. Equal entries are not always repeated.

Take `Cc1ncsc1-c1ccc([C@H](C)NC(=O)[C@@H]2C[C@@H](O)CN2C(=O)[C@@H](NC(=O)CCCCCCC(=O)N2CCN(C[C@]3(C)CCC(c4ccc(Cl)cc4)=C(CN4CCN(c5ccc(C(=O)NS(=O)(=O)c6ccc(N[C@H](CCN7CCOCC7)CSc7ccccc7)c(S(=O)(=O)C(F)(F)F)c6)cc5)CC4)C3)CC2)C(C)(C)C)cc1` [753b]: in the experiment on Kasumi-1 cells, the “killing of Kasumi-1 cells by induction of apoptosis (in words)” value is “more potent than DT2216, ABT199 (a selective BCL-2 inhibitor) and ABT263 in killing Kasumi-1 cells by induction of apoptosis”. For the same compound, in experiment [1], the “polyubiquitination of BCL-xL WT and mutants (in words)” value is “induces polyubiquitination of WT, K20-only, and K87-only BCL-xL, but not K16-only BCL-xL”.
With `Cc1ncsc1-c1ccc([C@H](C)NC(=O)[C@@H]2C[C@@H](O)CN2C(=O)[C@@H](NC(=O)CCCCCC(=O)N2CCN(CC[C@H](CSc3ccccc3)Nc3ccc(S(=O)(=O)NC(=O)c4ccc(N5CCN(CC6=C(c7ccc(Cl)cc7)CCC(C)(C)C6)CC5)cc4)cc3S(=O)(=O)C(F)(F)F)CC2)C(C)(C)C)cc1` [DT2216], the “NanoBRET ratio (610/450, background-corrected), Ave of Read1 and Read2” value in experiment [2] (BCL-xL-K157-only, 0.004 uM) is 10.7987 and 11.5766 and 10.5479; in experiment [2] (BCL-xL-K157-only, 0.012 uM), 11.0721 and 10.709 and 10.6817; in experiment [2] (BCL-xL-K-ko, 0.111 uM) it was 9.743 and 8.289 and 8.518; in experiment [2] (BCL-xL-K-ko, 0.333 uM), 10.8261 and 11.8027 and 12.9139; in experiment [2] (BCL-xL-K-ko, 1 uM) it was 12.3201 and 11.4125 and 11.9637; in experiment [2] (BCL-xL-K-ko, 3 uM), 11.1936 and 11.8549 and 13.734. Besides, the “NanoBRET ratio (610/450, background-corrected), Ave of Read1 and Read2” value was 9.743 and 11.8617 and 10.3438 in experiment [2] (BCL-xL-WT, 0.004 uM); 9.762 and 10.7766 and 10.2017 in experiment [2] (BCL-xL-WT, 0.012 uM). The “NanoBRET ratio (610/450, background-corrected), Read1” value in experiment [2] (BCL-xL-K157-only, 0.333 uM) was 10.8894 and 11.2489 and 10.7657; in experiment [2] (BCL-xL-K157-only, 1 uM), 11.6598 and 10.7529 and 10.4117; in experiment [2] (BCL-xL-K157-only, 3 uM), 10.1831 and 11.8895 and 11.1918; in experiment [2] (BCL-xL-K-ko, 0.333 uM), 11.2191 and 11.4255 and 13.2322; in experiment [2] (BCL-xL-K-ko, 1 uM) it was 11.8556 and 11.5549 and 12.6815; in experiment [2] (BCL-xL-K-ko, 3 uM) it was 11.8587 and 11.5989 and 13.3819. For the same compound, the “NanoBRET ratio (610/450, background-corrected), Read1” value is 9.95 and 12.5908 and 9.76 in experiment [2] (BCL-xL-WT, 0.333 uM); 10.2229 and 10.6812 and 9.915 in experiment [2] (BCL-xL-WT, 1 uM); 9.528 and 10.0038 and 9.921 in experiment [2] (BCL-xL-WT, 3 uM). Further, the “NanoBRET ratio (610/450, background-corrected), Read2” value in experiment [2] (BCL-xL-K157-only, 0.333 uM) is 10.7079 and 11.9043 and 10.3302; in experiment [2] (BCL-xL-K157-only, 1 uM), 10.4844 and 10.6651 and 10.9516; in experiment [2] (BCL-xL-K157-only, 3 uM) it was 9.289 and 10.911 and 11.6927; in experiment [2] (BCL-xL-K-ko, 0.333 uM), 10.4332 and 12.18 and 12.5957; in experiment [2] (BCL-xL-K-ko, 1 uM) it was 12.7845 and 11.2702 and 11.2459; in experiment [2] (BCL-xL-K-ko, 3 uM) it was 10.5286 and 12.111 and 14.0861. Besides, the “NanoBRET ratio (610/450, background-corrected), Read2” value in experiment [2] (BCL-xL-WT, 0.333 uM) is 9.537 and 11.1326 and 10.9276; in experiment [2] (BCL-xL-WT, 1 uM), 9.301 and 10.872 and 10.4881; in experiment [2] (BCL-xL-WT, 3 uM) it was 9.235 and 10.9871 and 9.69.
